In experiment [1] the target is T1, Heat shock factor protein 1 (Mus musculus, UniProt P38532).
T1 sequence (P38532 whole entry): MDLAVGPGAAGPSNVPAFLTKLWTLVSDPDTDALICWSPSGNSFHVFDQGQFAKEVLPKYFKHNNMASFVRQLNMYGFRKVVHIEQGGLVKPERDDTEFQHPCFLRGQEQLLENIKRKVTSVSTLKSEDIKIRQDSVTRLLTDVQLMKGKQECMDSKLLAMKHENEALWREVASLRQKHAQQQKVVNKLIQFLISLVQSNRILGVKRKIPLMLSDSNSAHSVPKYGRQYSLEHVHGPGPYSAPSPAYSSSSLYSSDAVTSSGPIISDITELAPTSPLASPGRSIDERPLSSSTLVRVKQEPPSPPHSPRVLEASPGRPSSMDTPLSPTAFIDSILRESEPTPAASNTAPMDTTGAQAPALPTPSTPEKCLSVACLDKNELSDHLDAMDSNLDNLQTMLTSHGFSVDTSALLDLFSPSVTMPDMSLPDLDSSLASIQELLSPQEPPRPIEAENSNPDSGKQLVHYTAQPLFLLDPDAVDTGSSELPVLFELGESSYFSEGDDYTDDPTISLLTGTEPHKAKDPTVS
Description: decrease of HSF1-responsive luciferase luminescence – cell-based, NIH3T3, dose retest, confirmation (AID 2382).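 Note: NIH3T3 fibroblasts with HSF1-driven luciferase reporter stressed by proteasome inhibitor MG132; luminescence from HSF1-driven luciferase expression after 8 hours of MG132 stress.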 The format is functional.

The target of experiment [2] is T2, Histone-lysine N-methyltransferase NSD2 (Homo sapiens, UniProt O96028).
T2 sequence (O96028 whole entry): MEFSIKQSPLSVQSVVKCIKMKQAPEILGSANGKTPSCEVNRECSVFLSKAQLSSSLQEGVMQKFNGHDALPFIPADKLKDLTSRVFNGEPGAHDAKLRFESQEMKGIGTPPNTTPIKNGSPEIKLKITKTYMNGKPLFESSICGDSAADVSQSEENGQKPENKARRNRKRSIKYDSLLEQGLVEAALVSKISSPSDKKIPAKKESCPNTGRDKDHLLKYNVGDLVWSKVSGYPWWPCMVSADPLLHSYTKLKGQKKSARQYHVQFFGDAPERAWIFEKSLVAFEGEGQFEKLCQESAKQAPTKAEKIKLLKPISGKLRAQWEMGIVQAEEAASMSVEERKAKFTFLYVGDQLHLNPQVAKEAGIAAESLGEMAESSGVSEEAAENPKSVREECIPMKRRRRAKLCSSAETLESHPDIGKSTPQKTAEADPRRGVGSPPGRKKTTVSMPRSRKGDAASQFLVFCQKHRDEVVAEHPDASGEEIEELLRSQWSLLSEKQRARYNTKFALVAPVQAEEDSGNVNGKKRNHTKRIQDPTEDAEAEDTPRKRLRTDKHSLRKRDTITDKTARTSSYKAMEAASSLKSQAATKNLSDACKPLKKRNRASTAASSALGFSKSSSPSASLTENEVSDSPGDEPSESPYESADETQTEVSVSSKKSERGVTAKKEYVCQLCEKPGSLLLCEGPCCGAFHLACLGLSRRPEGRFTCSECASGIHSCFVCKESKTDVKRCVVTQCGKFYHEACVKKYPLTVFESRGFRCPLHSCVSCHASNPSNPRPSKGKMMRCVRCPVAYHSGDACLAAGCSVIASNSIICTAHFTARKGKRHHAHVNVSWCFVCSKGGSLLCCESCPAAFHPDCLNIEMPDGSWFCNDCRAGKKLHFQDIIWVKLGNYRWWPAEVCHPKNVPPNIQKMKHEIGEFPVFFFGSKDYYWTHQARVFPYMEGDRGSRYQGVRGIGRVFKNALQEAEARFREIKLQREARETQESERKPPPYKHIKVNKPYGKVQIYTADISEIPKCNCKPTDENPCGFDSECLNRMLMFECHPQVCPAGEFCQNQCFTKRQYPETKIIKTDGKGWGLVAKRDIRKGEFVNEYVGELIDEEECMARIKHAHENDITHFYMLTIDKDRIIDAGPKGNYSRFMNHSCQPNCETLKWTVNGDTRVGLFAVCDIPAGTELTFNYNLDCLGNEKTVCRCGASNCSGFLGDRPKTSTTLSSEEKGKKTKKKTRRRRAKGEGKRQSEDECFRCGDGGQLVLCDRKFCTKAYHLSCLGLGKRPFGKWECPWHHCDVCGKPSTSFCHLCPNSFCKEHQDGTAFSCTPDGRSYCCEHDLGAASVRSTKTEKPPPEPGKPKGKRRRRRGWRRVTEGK
The format is biochemical.

The target of experiment [3] is SUMO-activating enzyme (Homo sapiens, UniProt Q9UBT2). Description: blockers of UBC9-mediated SUMO conjugation – biochemical, AlphaScreen, SUMOylation inhibitor project, confirmation (AID 2018). The class given is functional. Background: Bead proximity is the source of the signal in Alpha formats.
Chain of SUMO-activating enzyme (Q9UBE0 whole entry): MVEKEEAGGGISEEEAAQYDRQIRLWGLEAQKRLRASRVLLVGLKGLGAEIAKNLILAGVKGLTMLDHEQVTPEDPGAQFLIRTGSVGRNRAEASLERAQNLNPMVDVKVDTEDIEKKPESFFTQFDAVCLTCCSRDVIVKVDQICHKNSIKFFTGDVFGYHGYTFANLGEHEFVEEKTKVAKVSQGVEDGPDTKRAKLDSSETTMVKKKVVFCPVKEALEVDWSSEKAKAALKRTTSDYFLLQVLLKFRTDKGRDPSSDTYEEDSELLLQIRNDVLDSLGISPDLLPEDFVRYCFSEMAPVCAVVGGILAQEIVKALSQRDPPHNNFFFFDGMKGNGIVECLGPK
Chain of SUMO-activating enzyme (Q9UBT2 whole entry): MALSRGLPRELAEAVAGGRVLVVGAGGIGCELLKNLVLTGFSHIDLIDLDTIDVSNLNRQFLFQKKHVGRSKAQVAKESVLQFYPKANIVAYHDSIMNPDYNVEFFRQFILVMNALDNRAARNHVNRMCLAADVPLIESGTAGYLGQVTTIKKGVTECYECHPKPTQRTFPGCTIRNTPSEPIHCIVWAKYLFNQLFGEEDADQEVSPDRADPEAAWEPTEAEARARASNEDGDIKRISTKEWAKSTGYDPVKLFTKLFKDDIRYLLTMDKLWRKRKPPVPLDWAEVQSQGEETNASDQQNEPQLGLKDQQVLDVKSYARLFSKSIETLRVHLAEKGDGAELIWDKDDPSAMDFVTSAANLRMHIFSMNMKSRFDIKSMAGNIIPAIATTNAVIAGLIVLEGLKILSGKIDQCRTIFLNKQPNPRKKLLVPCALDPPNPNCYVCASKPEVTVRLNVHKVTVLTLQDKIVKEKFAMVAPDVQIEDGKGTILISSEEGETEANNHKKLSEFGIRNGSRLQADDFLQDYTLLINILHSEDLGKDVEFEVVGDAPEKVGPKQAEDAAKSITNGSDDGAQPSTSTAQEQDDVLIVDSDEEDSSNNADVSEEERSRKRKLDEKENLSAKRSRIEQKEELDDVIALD
Experiment [4] in a line: reduced cellular PGC1a acetyl-lysine signal – cell-based, cherry-picked samples, dose response (AID 720514).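 Note: potency may reflect raised or lowered acetylation signal.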 The class given is functional.
Experiment [5] has as its target T3, Sphingosine 1-phosphate receptor 4 (Homo sapiens, UniProt O95977).
T3 sequence (O95977 whole entry): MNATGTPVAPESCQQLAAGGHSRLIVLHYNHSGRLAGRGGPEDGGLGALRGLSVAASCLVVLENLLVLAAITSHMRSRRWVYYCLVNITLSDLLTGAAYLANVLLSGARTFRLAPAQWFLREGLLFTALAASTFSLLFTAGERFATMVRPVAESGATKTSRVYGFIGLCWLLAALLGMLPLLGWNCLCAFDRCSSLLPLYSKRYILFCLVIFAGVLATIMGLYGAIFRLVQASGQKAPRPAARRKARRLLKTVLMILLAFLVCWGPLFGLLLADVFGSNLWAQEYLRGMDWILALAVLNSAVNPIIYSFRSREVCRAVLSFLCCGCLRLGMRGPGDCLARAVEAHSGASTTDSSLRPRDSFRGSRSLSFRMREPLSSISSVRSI
Description: Fluorescence dose response cell-based high throughput screening assay for antagonists of the Sphingosine 1-Phosphate Receptor 4 (S1P4). [Related pubchem assays: 1524 (Confirmation in triplicates.), 1510 (Primary screen.)]. The format is functional.

A short description of experiment [6]: Luminescence Cell-Based Dose Confirmation HTS to Identify Activators of 5'UTR Stem-Loop Driven Alpha-Synuclein mRNA Translation in H4 Neuroglioblastoma Cells. [Related pubchem assays: 1829 (Project Summary), 1814 (Primary HTS)]. The format is functional.
The nature of experiment [7]: Vero E6 cell cytotoxicity, dose response, cytotoxicity control for non-replicating M. tuberculosis project, secondary assay (AID 492998). The format is functional, VeroE6. To be noted: Vero C1008.
The target in experiment [8] is Bifunctional protein GlmU (Mycobacterium tuberculosis, UniProt P9WMN3). In words: Inhibitors of Mycobacterial Glucosamine-1-phosphate acetyl transferase (GlmU). Secondary screen. On the set-up: species or system Mycobacterium tuberculosis H37Rv.
Chain of Bifunctional protein GlmU (P9WMN3 whole entry): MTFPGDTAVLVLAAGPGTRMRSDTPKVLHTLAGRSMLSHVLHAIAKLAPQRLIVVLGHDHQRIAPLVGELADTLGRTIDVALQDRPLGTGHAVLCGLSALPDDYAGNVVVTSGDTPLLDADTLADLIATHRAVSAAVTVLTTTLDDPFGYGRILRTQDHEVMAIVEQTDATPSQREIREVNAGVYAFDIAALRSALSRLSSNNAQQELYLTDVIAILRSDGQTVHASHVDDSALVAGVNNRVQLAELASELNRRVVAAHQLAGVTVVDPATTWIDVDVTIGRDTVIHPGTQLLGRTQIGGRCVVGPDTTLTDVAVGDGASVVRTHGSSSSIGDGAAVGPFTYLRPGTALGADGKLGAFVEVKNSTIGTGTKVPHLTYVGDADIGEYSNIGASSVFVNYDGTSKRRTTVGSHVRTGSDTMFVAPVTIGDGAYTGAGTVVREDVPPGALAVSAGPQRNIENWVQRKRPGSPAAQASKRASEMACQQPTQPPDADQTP
In experiment [9] the target is Beta Lactamase (Pseudomonas aeruginosa, UniProt Q932Y6). Description: BLA reporter interference, concentration series – BLA reporter cells, FRET fluorescence, artefact control for TLR9-MyD88 binding inhibitor project, dose response (AID 588341).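 Note: cell based assay in CHO-K1 cells stably expressing beta-lactamase.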 The class given is cell-based.
Chain of Beta Lactamase (Q932Y6 whole entry): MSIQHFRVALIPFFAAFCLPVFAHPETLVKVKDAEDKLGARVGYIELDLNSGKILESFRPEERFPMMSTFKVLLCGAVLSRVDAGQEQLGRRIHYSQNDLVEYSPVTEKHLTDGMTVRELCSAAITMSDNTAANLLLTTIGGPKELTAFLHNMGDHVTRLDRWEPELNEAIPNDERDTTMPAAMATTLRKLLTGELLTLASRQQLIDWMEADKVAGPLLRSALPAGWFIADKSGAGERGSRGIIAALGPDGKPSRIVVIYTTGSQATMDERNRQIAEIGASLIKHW
Experiment [10] has as its target Heat shock protein HSP 90-alpha (Homo sapiens, UniProt P07900). The format is functional, organism-based.
Experiment [11] concerns the target Sphingosine 1-phosphate receptor 1 (Homo sapiens, UniProt P21453). The format is functional.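 Note: Tango beta-arrestin reporter U2OS cells stimulated with S1P near its EC80; inhibitor potency meaning antagonism of receptor activation by the natural agonist.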

Calls of active or inactive are those of the source.

Chain of Sphingosine 1-phosphate receptor 1 (P21453 whole entry): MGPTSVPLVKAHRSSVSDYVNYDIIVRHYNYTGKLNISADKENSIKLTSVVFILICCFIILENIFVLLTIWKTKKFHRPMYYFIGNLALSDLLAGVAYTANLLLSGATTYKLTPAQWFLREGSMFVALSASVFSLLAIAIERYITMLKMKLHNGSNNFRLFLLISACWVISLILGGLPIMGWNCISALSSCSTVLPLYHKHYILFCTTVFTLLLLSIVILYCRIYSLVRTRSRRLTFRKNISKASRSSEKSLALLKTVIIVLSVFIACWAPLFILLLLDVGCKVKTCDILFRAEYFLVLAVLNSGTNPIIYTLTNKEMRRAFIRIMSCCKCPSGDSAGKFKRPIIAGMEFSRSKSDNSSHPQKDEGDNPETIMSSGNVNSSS

On to `CC1OC(Nc2cccc3ccccc23)C(O)C(O)C1O` (stereo unspecified), for which the half-maximal effective concentration (EC50) in [1] is > 195 µM (not active). The concentration at half-maximal activity (AC50) in experiment [2] is 9.24 µM (active).
As to `O=C1C=C(Nc2ccccc2)c2ccccc2C1=O`, in experiment [3], the concentration for half-maximal inhibition (IC50) is 1.47 µM (active).
Turning to `O=C(Nc1ccccc1)c1nnsc1[S+]([O-])c1ccc(Cl)cc1` (stereo unspecified), the AC50 in experiment [4] is 10.3 µM (active); in experiment [10] it was < 0.195 µM (active). Moreover, the half-maximal inhibitory concentration (IC50) is 1.15 µM (active) in [5], 197 µM (active) in experiment [8], 11.9 µM (inactive) in experiment [9] and > 49.8 µM (not active) in [11]. Also, the EC50 in experiment [6] is 8.7 µM (active). Also, the CC50 in experiment [7] was 13.1 µM (active).

What is called EC50 is the concentration at which the effect is half-maximal. Usually AC50 stands for the midpoint of the concentration-response curve, whichever way the signal moves. As usually defined, the IC50 is the midpoint of a concentration-inhibition curve. As usually defined, the CC50 is the concentration that lowers cell viability or growth by half.
